Laboratory results: US8486939B2, “Pyrimidinyl and 1,3,5-triazinyl benzimidazoles and their use in cancer therapy” (Pathway Therapeutics Inc., priority 2009, dated 2013)

Tests used:
PI3K = conditions: background, literature; cited from earlier work
NZOV9 = assay: Cellular growth inhibition (3H-thymidine incorporation); assay type: cell-based; conditions: Homo sapiens, five days incubation, 3H-thymidine over the last 6 hrs, read-out: Cell IC50* NZOV9
Method: (§1) The compounds were evaluated against two early passage human cell lines NZB5 and NZOV9 (Marshall et al., Oncol. Res. 2004, 14, 297). The cells were grown in ITS medium (α-modified minimal essential medium supplemented insulin, transferrin, selenite, and 5% fetal bovine serum) and grown on 96-well tissue culture plates under an atmosphere of 5% O2, 5% CO2, and 90% N2. Individual wells contained 500-1,000 cells (depending on the growth rate) in a volume of 150 μL. Compounds were added at 10-fold concentration steps to a maximum of 20 μM and plates were incubated for five days, with ^3H-thymidine being added over the last 6 hrs. Cells were harvested and incorporated radioactivity measured. Duplicate samples were analyzed for each compound dose with multiple control samples. Data were fitted by a least-squares method to an exponential of the form y=y0+ae^−bx, where y is the radioactivity (corrected for background and normalized to 100% of the control), x is the […], and y0, a, and b are variables, and the IC50 value defined as the compound concentration reducing ^3H-thymidine levels by 50%.

NZB5 = assay: as above; assay type: cell-based; conditions: Homo sapiens, five days incubation, 3H-thymidine over the last 6 hrs, read-out: Cell IC50* NZB5
Method: as §1

p110α/p85 = p110α/p85 (Homo sapiens, UniProt P42336); assay: Inhibition of isolated enzyme (lipid kinase assay, [γ33P]ATP, TLC); assay type: biochemical; conditions: recombinant enzyme, 100 μM ATP, 1 hr room temperature, average of two experiments
p110α/p85, sequence (P42336 whole entry): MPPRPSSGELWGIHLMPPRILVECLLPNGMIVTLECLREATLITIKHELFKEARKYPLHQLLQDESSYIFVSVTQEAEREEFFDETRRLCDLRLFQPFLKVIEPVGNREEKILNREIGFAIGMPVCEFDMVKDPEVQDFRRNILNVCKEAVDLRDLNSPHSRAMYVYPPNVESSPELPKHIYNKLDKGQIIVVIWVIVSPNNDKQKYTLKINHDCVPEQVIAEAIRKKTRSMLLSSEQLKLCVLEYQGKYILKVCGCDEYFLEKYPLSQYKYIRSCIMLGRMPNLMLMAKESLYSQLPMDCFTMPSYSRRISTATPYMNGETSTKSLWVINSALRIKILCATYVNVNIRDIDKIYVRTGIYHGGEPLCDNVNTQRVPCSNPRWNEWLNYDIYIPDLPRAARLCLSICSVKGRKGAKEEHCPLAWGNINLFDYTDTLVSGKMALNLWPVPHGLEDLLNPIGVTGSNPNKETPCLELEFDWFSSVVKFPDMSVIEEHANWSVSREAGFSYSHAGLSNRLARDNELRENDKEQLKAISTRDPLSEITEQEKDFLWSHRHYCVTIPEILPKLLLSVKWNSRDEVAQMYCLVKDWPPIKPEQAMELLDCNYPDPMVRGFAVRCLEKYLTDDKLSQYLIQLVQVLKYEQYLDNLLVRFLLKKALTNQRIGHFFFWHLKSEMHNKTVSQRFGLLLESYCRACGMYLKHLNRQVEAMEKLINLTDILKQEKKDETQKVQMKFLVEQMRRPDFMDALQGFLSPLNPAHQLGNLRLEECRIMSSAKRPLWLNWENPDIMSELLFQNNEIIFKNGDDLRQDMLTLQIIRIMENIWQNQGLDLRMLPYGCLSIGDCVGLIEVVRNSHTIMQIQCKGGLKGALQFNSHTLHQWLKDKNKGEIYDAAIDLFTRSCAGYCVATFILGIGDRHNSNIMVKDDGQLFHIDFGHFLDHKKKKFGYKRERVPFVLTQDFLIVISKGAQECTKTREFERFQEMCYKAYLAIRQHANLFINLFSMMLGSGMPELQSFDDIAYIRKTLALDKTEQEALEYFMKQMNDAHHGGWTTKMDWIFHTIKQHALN
p110α/p85, sequence (P27986 whole entry partner): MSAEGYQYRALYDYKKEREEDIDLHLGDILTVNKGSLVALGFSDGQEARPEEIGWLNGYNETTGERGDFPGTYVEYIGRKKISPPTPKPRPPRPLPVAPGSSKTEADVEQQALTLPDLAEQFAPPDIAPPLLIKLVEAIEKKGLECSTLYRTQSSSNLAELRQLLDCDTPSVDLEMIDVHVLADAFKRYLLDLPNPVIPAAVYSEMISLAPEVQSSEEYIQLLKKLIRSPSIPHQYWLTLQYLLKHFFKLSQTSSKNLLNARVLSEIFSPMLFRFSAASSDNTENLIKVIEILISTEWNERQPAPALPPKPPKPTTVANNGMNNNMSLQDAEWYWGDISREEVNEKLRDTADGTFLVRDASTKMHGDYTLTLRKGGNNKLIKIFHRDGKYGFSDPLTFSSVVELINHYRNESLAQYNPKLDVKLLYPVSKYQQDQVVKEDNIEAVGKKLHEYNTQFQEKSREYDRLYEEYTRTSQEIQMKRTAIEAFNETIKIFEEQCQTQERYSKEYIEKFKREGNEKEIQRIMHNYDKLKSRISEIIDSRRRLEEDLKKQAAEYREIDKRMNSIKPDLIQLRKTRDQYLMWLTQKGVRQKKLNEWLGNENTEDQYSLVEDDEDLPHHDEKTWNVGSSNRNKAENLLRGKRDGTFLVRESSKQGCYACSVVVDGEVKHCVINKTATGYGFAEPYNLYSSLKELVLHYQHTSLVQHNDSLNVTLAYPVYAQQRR
Method: (§2) Compounds were evaluated for their ability to inhibit Class I PI 3-kinase enzymes p110δ/p85, p110α/p85, and p110β/p85. Reaction mixtures comprising 0.1 μg of a recombinant enzyme, 10 μg of L-α-phosphatidylinositol, and 2× Lipid Kinase Buffer (40 mM Tris-HCl, pH 7.4, 200 mM NaCl, 1 mM EDTA), which contains either DMSO only as a control or the test compound in DMSO (the final DMSO concentration is 1%), were activated by the addition of an ATP mix (5 mM MgCl2, 100 μM ATP, and 0.1 μL [γ^33P]ATP). Reactions were incubated at room temperature for 1 hr, and then stopped by the addition of 1M HCl. The lipids were then extracted using a two step procedure. Firstly, 200 μL of chloroform/methanol (1:1) was added, the biphasic reactions mixed and centrifuged briefly, and the inorganic phase was removed and discarded. Following this, 80 μL of methanol:HCl (1:1) was added and the same procedure followed. The organic phase (70 μL) was then transferred to a clean 1.6 mL tube and the reactions were dried using a Speedvac, with no heating, for […]. The reactions were spotted onto TLC plates (Merck Ltd) and developed for 1 hr in propanol-1:2 M acetic acid (13:7). The TLC plates were then dried at room temperature and quantified using a phosphorimager (StormImager, Amersham). Nine compound concentrations were used for each test compound to determine its IC50 value. Each experiment was performed twice and the average IC50 value is used herein.

p110δ/p85 = p110δ/p85 (Homo sapiens, UniProt O00329); assay: as above; assay type: biochemical; conditions: recombinant enzyme, 100 μM ATP, 1 hr room temperature, average of two experiments
p110δ/p85, sequence (O00329 whole entry, species assumed): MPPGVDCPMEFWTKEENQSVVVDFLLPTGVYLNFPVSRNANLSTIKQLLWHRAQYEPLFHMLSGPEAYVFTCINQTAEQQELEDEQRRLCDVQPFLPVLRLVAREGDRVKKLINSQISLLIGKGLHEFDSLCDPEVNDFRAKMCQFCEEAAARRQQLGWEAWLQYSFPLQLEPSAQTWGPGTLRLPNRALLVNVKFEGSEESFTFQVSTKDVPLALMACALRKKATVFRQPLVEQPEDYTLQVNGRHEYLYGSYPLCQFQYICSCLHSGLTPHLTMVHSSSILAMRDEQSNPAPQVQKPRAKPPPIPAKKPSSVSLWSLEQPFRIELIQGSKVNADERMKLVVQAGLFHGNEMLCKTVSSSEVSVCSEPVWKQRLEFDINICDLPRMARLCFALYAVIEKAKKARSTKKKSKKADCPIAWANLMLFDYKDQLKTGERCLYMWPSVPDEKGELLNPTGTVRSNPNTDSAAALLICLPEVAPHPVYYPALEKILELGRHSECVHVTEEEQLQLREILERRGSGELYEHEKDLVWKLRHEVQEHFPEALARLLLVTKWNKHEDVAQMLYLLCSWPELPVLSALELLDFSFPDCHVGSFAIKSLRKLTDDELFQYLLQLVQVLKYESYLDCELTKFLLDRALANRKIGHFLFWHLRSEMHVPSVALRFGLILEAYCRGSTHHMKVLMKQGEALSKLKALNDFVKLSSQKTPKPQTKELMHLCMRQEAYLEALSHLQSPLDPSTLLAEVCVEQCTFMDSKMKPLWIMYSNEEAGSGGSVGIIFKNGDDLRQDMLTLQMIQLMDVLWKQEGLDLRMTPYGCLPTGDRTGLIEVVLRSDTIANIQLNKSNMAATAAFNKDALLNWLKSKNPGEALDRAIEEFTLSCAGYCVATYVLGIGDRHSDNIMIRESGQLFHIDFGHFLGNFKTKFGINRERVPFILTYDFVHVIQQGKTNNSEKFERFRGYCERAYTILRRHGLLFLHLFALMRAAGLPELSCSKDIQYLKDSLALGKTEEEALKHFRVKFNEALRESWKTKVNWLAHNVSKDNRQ
p110δ/p85, sequence (P27986 whole entry partner, species assumed): as the sequence (P27986 whole entry partner) above
Method: as §2

p110β/p85 = p110β/p85 (Homo sapiens, UniProt P42338); assay: as above; assay type: biochemical; conditions: recombinant enzyme, 100 μM ATP, 1 hr room temperature, average of two experiments
p110β/p85, sequence (P42338 whole entry, species assumed): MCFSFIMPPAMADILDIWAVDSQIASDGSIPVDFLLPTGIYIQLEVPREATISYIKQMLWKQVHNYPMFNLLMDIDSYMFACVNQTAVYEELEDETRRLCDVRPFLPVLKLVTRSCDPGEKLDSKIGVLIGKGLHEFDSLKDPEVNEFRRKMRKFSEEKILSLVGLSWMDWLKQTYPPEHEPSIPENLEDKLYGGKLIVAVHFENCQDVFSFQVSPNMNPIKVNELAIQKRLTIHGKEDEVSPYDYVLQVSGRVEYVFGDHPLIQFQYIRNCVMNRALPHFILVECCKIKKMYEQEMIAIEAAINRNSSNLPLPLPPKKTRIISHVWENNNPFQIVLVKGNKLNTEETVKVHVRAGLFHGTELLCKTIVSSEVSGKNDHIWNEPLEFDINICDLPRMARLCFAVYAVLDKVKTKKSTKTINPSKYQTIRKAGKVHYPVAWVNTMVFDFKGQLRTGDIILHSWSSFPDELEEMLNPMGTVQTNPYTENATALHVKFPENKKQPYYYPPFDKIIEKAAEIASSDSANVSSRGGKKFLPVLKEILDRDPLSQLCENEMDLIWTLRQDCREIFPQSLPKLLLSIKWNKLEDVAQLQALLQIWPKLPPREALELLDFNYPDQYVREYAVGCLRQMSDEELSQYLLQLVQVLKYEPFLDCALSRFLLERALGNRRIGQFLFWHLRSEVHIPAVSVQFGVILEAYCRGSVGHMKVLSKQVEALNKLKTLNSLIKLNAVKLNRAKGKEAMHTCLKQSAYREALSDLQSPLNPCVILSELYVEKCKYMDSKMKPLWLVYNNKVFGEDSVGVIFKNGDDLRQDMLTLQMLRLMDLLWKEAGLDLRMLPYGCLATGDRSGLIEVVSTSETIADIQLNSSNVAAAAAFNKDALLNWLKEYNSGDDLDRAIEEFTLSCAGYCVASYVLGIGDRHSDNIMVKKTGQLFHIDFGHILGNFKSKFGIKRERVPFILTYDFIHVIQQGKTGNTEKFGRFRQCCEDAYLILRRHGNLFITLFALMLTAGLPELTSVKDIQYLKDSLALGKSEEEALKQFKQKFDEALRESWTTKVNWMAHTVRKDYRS
p110β/p85, sequence (P27986 whole entry partner, species assumed): as the sequence (P27986 whole entry partner) above
Method: as §2

Row | Structure (SMILES) | PI3K isoform selectivity (PI3K) | IC50 (NZOV9) | IC50 (NZB5) | melting point | IC50 (p110α/p85) | IC50 (p110δ/p85) | IC50 (p110β/p85)
1 | Oc1cccc(-c2nc(N3CCOCC3)c3oc4ncccc4c3n2)c1 [PI103] | slightly α-selective |  |  |  |  |  | 
2 | Cc1ccccc1-n1c(Cn2cnc3c(N)ncnc32)nc2cccc(C)c2c1=O [IC87114] | δ-selective |  |  |  |  |  | 
3 | COc1cccc2c1nc(C(F)F)n2-c1nc(Nc2ccc(Cl)nc2)nc(N2CCOCC2)n1 [Example 30, N-(6-chloro-3-pyridinyl)-4-[2-(difluoromethyl)-4-methoxy-1H-benzimidazol-1-yl]-6-(4-morpholinyl)-1,3,5-triazin-2-amine] |  | < 100 nM | < 100 nM | 260 to 262 °C | < 100 nM | < 100 nM | 100 to 1000 nM
4 | CS(=O)(=O)c1nc2ccccc2n1-c1nc(Nc2cccnc2)nc(N2CCOCC2)n1 [Example 5, 4-[2-(methylsulfonyl)-1H-benzimidazol-1-yl]-6-(4-morpholinyl)-N-(3-pyridinyl)-1,3,5-triazin-2-amine] |  | 100 to 1000 nM | 100 to 1000 nM | 208 to 211 °C | 100 to 1000 nM | < 100 nM | 100 to 1000 nM
5 | COc1cc(Nc2nc(N3CCOCC3)nc(-n3c(C(F)F)nc4c(OC)cccc43)n2)ncn1 [Example 32, 4-(2-(difluoromethyl)-4-methoxy-1H-benzimidazol-1-yl)-N-(6-methoxypyrimidin-4-yl)-6-morpholino-1,3,5-triazin-2-amine] |  | < 100 nM | > 10000 nM | 256 to 259 °C | < 100 nM | < 100 nM | 100 to 1000 nM
6 | FC(F)c1nc2ccccc2n1-c1nc(Nc2ccccc2)nc(N2CCOCC2)n1 [Example 6, 4-[2-(difluoromethyl)-1H-benzimidazol-1-yl]-6-(4-morpholinyl)-N-phenyl-1,3,5-triazin-2-amine] |  | 100 to 1000 nM | 100 to 1000 nM | 171 to 174 °C | 100 to 1000 nM | < 100 nM | 100 to 1000 nM
7 | FC(F)c1nc2ccccc2n1-c1nc(Nc2ccncc2)nc(N2CCOCC2)n1 [Example 17, 4-[2-(difluoromethyl)-1H-benzimidazol-1-yl]-6-(4-morpholinyl)-N-(4-pyridinyl)-1,3,5-triazin-2-amine] |  | < 100 nM | < 100 nM | 222 to 224 °C | < 100 nM | < 100 nM | 100 to 1000 nM
8 | COc1cccc2c1nc(C(F)F)n2-c1nc(Nc2ccncn2)nc(N2CCOCC2)n1 [Example 36, 4-[2-(difluoromethyl)-4-methoxy-1H-benzimidazol-1-yl]-6-(4-morpholinyl)-N-(4-pyrimidinyl)-1,3,5-triazin-2-amine] |  | < 100 nM | < 100 nM | 234 to 236 °C | < 100 nM | < 100 nM | 100 to 1000 nM
9 | FC(F)c1nc2ccccc2n1-c1nc(Sc2ccccc2)nc(N2CCOCC2)n1 [Example 11, 2-(difluoromethyl)-1-[4-(4-morpholinyl)-6-(phenylsulfanyl)-1,3,5-triazin-2-yl]-1H-benzimidazole] |  | > 10000 nM | > 10000 nM | 245 to 248 °C | > 10000 nM | 1000 to 10000 nM | > 10000 nM
10 | COc1ccc(Nc2nc(N3CCOCC3)nc(-n3c(C(F)F)nc4c(OC)cccc43)n2)nn1 [Example 34, 4-[2-(difluoromethyl)-4-methoxy-1H-benzimidazol-1-yl]-N-(6-methoxy-3-pyridazinyl)-6-(4-morpholinyl)-1,3,5-triazin-2-amine] |  | 100 to 1000 nM | 100 to 1000 nM | 256 to 259 °C | < 100 nM | < 100 nM | 100 to 1000 nM
11 | O=S(=O)(c1ccccc1)c1nc(N2CCOCC2)nc(-n2c(C(F)F)nc3ccccc32)n1 [Example 12, 2-(difluoromethyl)-1-[4-(4-morpholinyl)-6-(phenylsulfonyl)-1,3,5-triazin-2-yl]-1H-benzimidazole] |  | > 10000 nM | > 10000 nM | 237 to 239 °C | 1000 to 10000 nM | 1000 to 10000 nM | 1000 to 10000 nM
12 | FC(F)c1nc2ccccc2n1-c1nc(-c2cccnc2)nc(N2CCOCC2)n1 [Example 47, 2-(difluoromethyl)-1-[4-(4-morpholinyl)-6-(3-pyridinyl)-1,3,5-triazin-2-yl]-1H-benzimidazole] |  | 100 to 1000 nM | 100 to 1000 nM | 199 to 201 °C | < 100 nM | < 100 nM | 100 to 1000 nM
13 | COc1cccc2c1nc(C(F)F)n2-c1nc(Nc2ccc(F)nc2)nc(N2CCOCC2)n1 [Example 29, 4-[2-(difluoromethyl)-4-methoxy-1H-benzimidazol-1-yl]-N-(6-fluoro-3-pyridinyl)-6-(4-morpholinyl)-1,3,5-triazin-2-amine] |  | < 100 nM | < 100 nM | 261 to 263 °C | < 100 nM | < 100 nM | 100 to 1000 nM
14 | FC(F)c1nc2ccccc2n1-c1nc(NCc2ccccn2)nc(N2CCOCC2)n1 [Example 13, 4-[2-(difluoromethyl)-1H-benzimidazol-1-yl]-6-(4-morpholinyl)-N-(2-pyridinylmethyl)-1,3,5-triazin-2-amine] |  | 100 to 1000 nM | 100 to 1000 nM | 192 to 193 °C | < 100 nM | < 100 nM | < 100 nM
15 | CNc1ccc(Nc2nc(N3CCOCC3)nc(-n3c(C(F)F)nc4c(OC)cccc43)n2)cn1 [Example 38, N^5-[4-[2-(difluoromethyl)-4-methoxy-1H-benzimidazol-1-yl]-6-(4-morpholinyl)-1,3,5-triazin-2-yl]-N^2-methyl-2,5-pyridinediamine] |  | < 100 nM | < 100 nM | 218 to 221 °C | < 100 nM | < 100 nM | 100 to 1000 nM
16 | COc1cccc2c1nc(C(F)F)n2-c1nc(Nc2cncnc2)nc(N2CCOCC2)n1 [Example 31, 4-[2-(difluoromethyl)-4-methoxy-1H-benzimidazol-1-yl]-6-(4-morpholinyl)-N-(5-pyrimidinyl)-1,3,5-triazin-2-amine] |  | < 100 nM | < 100 nM | 293 to 295 °C | < 100 nM | < 100 nM | 100 to 1000 nM
17 | CN(c1ccccc1)c1nc(N2CCOCC2)nc(-n2c(C(F)F)nc3ccccc32)n1 [Example 7, 4-[2-(difluoromethyl)-1H-benzimidazol-1-yl]-N-methyl-6-(4-morpholinyl)-N-phenyl-1,3,5-triazin-2-amine] |  | 100 to 1000 nM | 100 to 1000 nM | 160 to 162 °C | 100 to 1000 nM | 100 to 1000 nM | 100 to 1000 nM
18 | COc1cccc2c1nc(C(F)F)n2-c1nc(Nc2ccc(N)nc2)nc(N2CCOCC2)n1 [Example 37, N^5-[4-[2-(difluoromethyl)-4-methoxy-1H-benzimidazol-1-yl]-6-(4-morpholinyl)-1,3,5-triazin-2-yl]-2,5-pyridinediamine] |  | < 100 nM | < 100 nM | 267 to 270 °C | < 100 nM | < 100 nM | 100 to 1000 nM
19 | COc1cccc2c1nc(C(F)F)n2-c1nc(Nc2cccnc2)nc(N2CCOCC2)n1 [Example 2, 4-[2-(difluoromethyl)-4-methoxy-1H-benzimidazol-1-yl]-6-(4-morpholinyl)-N-(3-pyridinyl)-1,3,5-triazin-2-amine] |  | < 100 nM | < 100 nM | 221 to 223 °C | < 100 nM | < 100 nM | 100 to 1000 nM
20 | FC(F)c1nc2ccccc2n1-c1nc(Nc2cccnn2)nc(N2CCOCC2)n1 [Example 23, 4-[2-(difluoromethyl)-1H-benzimidazol-1-yl]-6-(4-morpholinyl)-N-(3-pyridazinyl)-1,3,5-triazin-2-amine] |  | 100 to 1000 nM | 100 to 1000 nM | 271 to 273 °C | < 100 nM | < 100 nM | 100 to 1000 nM
